From ChEMBL document CHEMBL1152024, “Synthesis and bronchospasmolytic properties of some pyridazinone derivatives” (1993)

Species: Cavia porcellus
Assay: Tested in vitro for its effect on tracheal relaxation in guinea pig trachea, activity expressed as pD2 (-log of molar concentration which gives a half maximal relaxing effect)
Format: functional
In the case of Oc1ccc(N2CCN(CC(O)c3ccc(Cl)c(Cl)c3)CC2)nn1 (configuration not stated), the pD2 is reported as 4.79.
Work on Cn1c(=O)c2nc[nH]c2n(C)c1=O.O [THEOPHYLLINE] yielded a pD2 of 4.

Species: Cavia porcellus
Assay: Tested in vitro for its effect on tracheal relaxation in guinea pig trachea, activity expressed as percentage increase in the velocity of the flux of perfusion at concentration 30 ug/mL
Format: functional
Work on Nc1c(Cl)cc(C(O)CN2CCN(c3ccc(O)nn3)CC2)cc1Cl (configuration not stated) yielded an Increase of 54%.
Work on CC(=O)Nc1ccc(C(O)CN2CCN(c3cnnc(O)c3Cl)CC2)cc1Cl (configuration not stated) yielded an Increase of 4%.
Compound O=c1ccc(Cl)nn1CCN1CCN(CC(O)c2ccc(Cl)c(Cl)c2)CC1 (configuration not stated) has an Increase of 46%.
Compound Nc1c(Cl)cc(C(O)CN2CCN(CCn3nc(Cl)ccc3=O)CC2)cc1Cl (configuration not stated) has an Increase of 22%.
Work on CC(=O)Nc1ccc(C(O)CN2CCN(CCn3nc(Cl)ccc3=O)CC2)cc1Cl (configuration not stated) yielded an Increase of 4%.
In the case of Oc1ccc(N2CCN(CC(O)c3ccc(Cl)c(Cl)c3)CC2)nn1 (configuration not stated), the Increase is reported as 87%.
With Oc1nncc(N2CCN(CC(O)c3ccc(Cl)c(Cl)c3)CC2)c1Cl (configuration not stated) the Increase was 3%.
CC(=O)Nc1ccc(C(O)CN2CCN(c3ccc(O)nn3)CC2)cc1Cl (configuration not stated) was tested, and the Increase was 23%.
Work on Nc1c(Cl)cc(C(O)CN2CCN(c3cnnc(O)c3Cl)CC2)cc1Cl (configuration not stated) yielded an Increase of 19%.

Species: Cavia porcellus
Assay: Tested in vitro for its effect on tracheal relaxation in guinea pig trachea, activity expressed as percentage increase in the velocity of the flux of perfusion at concentration 10 ug/mL
Format: functional
Compound Cn1c(=O)c2nc[nH]c2n(C)c1=O.O [THEOPHYLLINE] has an Increase of 55%.
